Species: Rattus norvegicus
Assay: DrugMatrix - Regimen: Daily Repeat
Assay type: toxicity, organism-based, Sprague-Dawley
Set-up: regimen Daily Repeat, gender Male, age 6-8 weeks
Conditions: in vivo, po, route oral GAVAGE, […]; for ABSOLUTE BASOPHIL / ABSOLUTE EOSINOPHIL / ABSOLUTE LYMPHOCYTE / ABSOLUTE MONOCYTE / ABSOLUTE SEGMENTED NEUTROPHIL / BASOPHIL / EOSINOPHIL / ERYTHROCYTE COUNT / HEMATOCRIT / HEMOGLOBIN / LEUKOCYTE COUNT / LYMPHOCYTE / MEAN CORPUSCULAR HEMOGLOBIN / MEAN CORPUSCULAR HEMOGLOBIN CONCENTRATION / MEAN CORPUSCULAR VOLUME / MONOCYTE / NEUTROPHIL / NUCLEATED RED BLOOD CELLS / PLATELET COUNT: tissue Blood; for ALANINE AMINOTRANSFERASE / ALBUMIN / ALKALINE PHOSPHATASE / ASPARTATE AMINOTRANSFERASE / BLOOD UREA NITROGEN / CARBON DIOXIDE / CHLORIDE / CHOLESTEROL / CREATINE PHOSPHOKINASE / CREATININE / GLUCOSE / LACTATE DEHYDROGENASE / LIPASE / PHOSPHORUS / POTASSIUM / SODIUM / TOTAL BILIRUBIN / TOTAL PROTEIN / URIC ACID: tissue Plasma
[1] = 0 mg/kg, 72 h, dose level Control, time 3 day
[2] = 0 mg/kg, 120 h, dose level Control, time 5 day
[3] = 100 mg/kg, 72 h, dose level M1, time 3 day

CC(C)(c1ccc(O)cc1)c1ccc(O)cc1 [BISPHENOL A]
ABSOLUTE BASOPHIL [1]: 0 CELLS/uL
ABSOLUTE EOSINOPHIL [1]: 33 CELLS/uL
ABSOLUTE LYMPHOCYTE [1]: 9048.5 CELLS/uL
ABSOLUTE MONOCYTE [1]: 80.17 CELLS/uL
ABSOLUTE SEGMENTED NEUTROPHIL [1]: 1521.67 CELLS/uL
BASOPHIL [1]: 0%
EOSINOPHIL [1]: 0.17%
ERYTHROCYTE COUNT [1]: 5.46 x10E6/uL
HEMATOCRIT [1]: 32.87%
HEMOGLOBIN [1]: 12.95 G/DL
LEUKOCYTE COUNT [1]: 10.68 x10E3/uL
LYMPHOCYTE [1]: 86.67%
MEAN CORPUSCULAR HEMOGLOBIN [1]: 23.72 pg
MEAN CORPUSCULAR HEMOGLOBIN CONCENTRATION [1]: 39.4 G/DL
MEAN CORPUSCULAR VOLUME [1]: 60.18 fL
MONOCYTE [1]: 0.83%
NEUTROPHIL [1]: 12.33%
NUCLEATED RED BLOOD CELLS [1]: 0 /100WBC
PLATELET COUNT [1]: 1211.33 x10E3/uL
ALANINE AMINOTRANSFERASE [1]: 76.67 u/L
ALBUMIN [1]: 3.93 G/DL
ALKALINE PHOSPHATASE [1]: 317.17 u/L
ASPARTATE AMINOTRANSFERASE [1]: 81.17 u/L
BLOOD UREA NITROGEN [1]: 12.33 mg/dL
CARBON DIOXIDE [1]: 31.17 mmol/L
CHLORIDE [1]: 98.33 MEQ/L
CHOLESTEROL [1]: 67.17 mg/dL
CREATINE PHOSPHOKINASE [1]: 312.33 u/L
CREATININE [1]: 0.19 mg/dL
GLUCOSE [1]: 165.5 mg/dL
LACTATE DEHYDROGENASE [1]: 94.5 u/L
LIPASE [1]: 9.83 u/L
PHOSPHORUS [1]: 10.1 mg/dL
POTASSIUM [1]: 5.16 MEQ/L
SODIUM [1]: 143.02 MEQ/L
TOTAL BILIRUBIN [1]: 0.2 mg/dL
TOTAL PROTEIN [1]: 5.88 G/DL
URIC ACID [1]: 0.68 mg/dL
ABSOLUTE BASOPHIL [2]: 0 CELLS/uL
ABSOLUTE EOSINOPHIL [2]: 14.67 CELLS/uL
ABSOLUTE LYMPHOCYTE [2]: 9629.83 CELLS/uL
ABSOLUTE MONOCYTE [2]: 72.5 CELLS/uL
ABSOLUTE SEGMENTED NEUTROPHIL [2]: 1049.67 CELLS/uL
BASOPHIL [2]: 0%
EOSINOPHIL [2]: 0.17%
ERYTHROCYTE COUNT [2]: 5.36 x10E6/uL
HEMATOCRIT [2]: 33.82%
HEMOGLOBIN [2]: 13.48 G/DL
LEUKOCYTE COUNT [2]: 10.77 x10E3/uL
LYMPHOCYTE [2]: 90.17%
MEAN CORPUSCULAR HEMOGLOBIN [2]: 25.28 pg
MEAN CORPUSCULAR HEMOGLOBIN CONCENTRATION [2]: 39.92 G/DL
MEAN CORPUSCULAR VOLUME [2]: 63.3 fL
MONOCYTE [2]: 0.67%
NEUTROPHIL [2]: 9%
NUCLEATED RED BLOOD CELLS [2]: 0.17 /100WBC
PLATELET COUNT [2]: 1275.33 x10E3/uL
ALANINE AMINOTRANSFERASE [2]: 93.67 u/L
ALBUMIN [2]: 4.17 G/DL
ALKALINE PHOSPHATASE [2]: 402.5 u/L
ASPARTATE AMINOTRANSFERASE [2]: 122.83 u/L
BLOOD UREA NITROGEN [2]: 14.75 mg/dL
CARBON DIOXIDE [2]: 26.4 mmol/L
CHLORIDE [2]: 98.5 MEQ/L
CHOLESTEROL [2]: 57.5 mg/dL
CREATINE PHOSPHOKINASE [2]: 305.17 u/L
CREATININE [2]: 0.21 mg/dL
GLUCOSE [2]: 142 mg/dL
LACTATE DEHYDROGENASE [2]: 83.5 u/L
LIPASE [2]: 85.83 u/L
PHOSPHORUS [2]: 8.18 mg/dL
POTASSIUM [2]: 5.46 MEQ/L
SODIUM [2]: 144 MEQ/L
TOTAL BILIRUBIN [2]: 0.25 mg/dL
TOTAL PROTEIN [2]: 5.63 G/DL
URIC ACID [2]: 0.8 mg/dL
ABSOLUTE BASOPHIL [3]: 0 CELLS/uL
ABSOLUTE EOSINOPHIL [3]: 35.67 CELLS/uL
ABSOLUTE LYMPHOCYTE [3]: 8627 CELLS/uL
ABSOLUTE MONOCYTE [3]: 90.33 CELLS/uL
ABSOLUTE SEGMENTED NEUTROPHIL [3]: 547 CELLS/uL
BASOPHIL [3]: 0%
EOSINOPHIL [3]: 0.33%
ERYTHROCYTE COUNT [3]: 5.35 x10E6/uL
HEMATOCRIT [3]: 33.47%
HEMOGLOBIN [3]: 13.5 G/DL
LEUKOCYTE COUNT [3]: 9.3 x10E3/uL
LYMPHOCYTE [3]: 92.67%
MEAN CORPUSCULAR HEMOGLOBIN [3]: 25.27 pg
MEAN CORPUSCULAR HEMOGLOBIN CONCENTRATION [3]: 40.33 G/DL
MEAN CORPUSCULAR VOLUME [3]: 62.63 fL
MONOCYTE [3]: 1%
NEUTROPHIL [3]: 6%
NUCLEATED RED BLOOD CELLS [3]: 0 /100WBC
PLATELET COUNT [3]: 906.33 x10E3/uL
ALANINE AMINOTRANSFERASE [3]: 76.33 u/L
ALBUMIN [3]: 4 G/DL
ALKALINE PHOSPHATASE [3]: 385 u/L
ASPARTATE AMINOTRANSFERASE [3]: 87 u/L
BLOOD UREA NITROGEN [3]: 12 mg/dL
CARBON DIOXIDE [3]: 31.67 mmol/L
CHLORIDE [3]: 98 MEQ/L
CHOLESTEROL [3]: 61 mg/dL
CREATINE PHOSPHOKINASE [3]: 318 u/L
CREATININE [3]: 0.17 mg/dL
GLUCOSE [3]: 154 mg/dL
LACTATE DEHYDROGENASE [3]: 114.33 u/L
LIPASE [3]: 9.67 u/L
PHOSPHORUS [3]: 10.63 mg/dL
POTASSIUM [3]: 5.46 MEQ/L
SODIUM [3]: 142.7 MEQ/L
TOTAL BILIRUBIN [3]: 0.17 mg/dL
TOTAL PROTEIN [3]: 5.73 G/DL
URIC ACID [3]: 0.77 mg/dL

Reference: ChEMBL document CHEMBL3885881, “DrugMatrix”
